Results published in ChEMBL document CHEMBL3351753, “Inhibitory effects of ginseng sapogenins on the proliferation of triple negative breast cancer MDA-MB-231 cells” (Bioorg Med Chem Lett, 2014).
Activity calls are given as the source filed them. The rule behind the calls is not given here.

Columns and labels:
[1] = system: MDA-MB-231; assay: Antiproliferative activity against human MDA-MB-231 cells after 4 hrs by MTT assay; type: functional, cell-based; settings: MDA-MB-231, 4 h
[2] = system: LLC-PK1; assay: Cytotoxicity against pig LLC-PK1 cells after 4 hrs by MTT assay; type: cell-based; settings: Sus scrofa, LLC-PK1, 4 h
[3] = system: MDA-MB-231; assay: Induction of apoptosis in human MDA-MB-231 cells assessed as increase in cells at early apoptotic phase at 2.5 uM after 24 hrs by annexin-V-FITC/propidium iodide staining- based flow cytometric analysis (reference value: 4.76%); type: functional
[4] = system: MDA-MB-231; assay: Induction of apoptosis in human MDA-MB-231 cells assessed as increase in expression of cleaved caspase 8 at 2.5 to 5.8 uM after 24 hrs by SDS-polyactylamide gel electrophoresis; type: functional, cell-based
[5] = system: MDA-MB-231; assay: Induction of apoptosis in human MDA-MB-231 cells assessed as increase in expression of cleaved caspase 3 at 2.5 to 5.8 uM after 24 hrs by SDS-polyactylamide gel electrophoresis; type: functional, cell-based
[6] = system: MDA-MB-231; assay: Induction of apoptosis in human MDA-MB-231 cells assessed as increase in expression of cleaved PARP at 2.5 to 5.8 uM after 24 hrs by SDS-polyactylamide gel electrophoresis; type: functional, cell-based
[7] = system: MDA-MB-231; assay: Induction of apoptosis in human MDA-MB-231 cells assessed as decrease in expression of full-length BID at 2.5 to 5.8 uM after 24 hrs by SDS-polyactylamide gel electrophoresis; type: functional, cell-based

Structure (SMILES)	IC50 [1] [µM]	other results
O=C(O[C@@H]1Cc2c(O)cc(O)cc2O[C@@H]1c1cc(O)c(O)c(O)c1)c1cc(O)c(O)c(O)c1 [EPIGALOCATECHIN GALLATE]	76.1	
COc1cc(/C=C/C(=O)CC(=O)/C=C/c2ccc(O)c(OC)c2)ccc1O [CURCUMIN]	34.4	
CC(C)=CCC[C@](C)(O)[C@H]1CC[C@]2(C)[C@@H]1[C@H](O)C[C@@H]1[C@@]3(C)CC[C@H](O)C(C)(C)[C@@H]3CC[C@]12C	5.9	IC50 [2]: 36.7 µM; Activity [3]: 8.18%; Activity [4]: Active; Activity [5]: Active; Activity [6]: Active; Activity [7]: Active
CC(C)=CCC[C@](C)(O)[C@H]1CC[C@]2(C)[C@@H]1[C@H](O)C[C@@H]1[C@@]3(C)CC[C@H](O)C(C)(C)[C@@H]3[C@@H](O)C[C@]12C	12.2	

Further lines, with some results ahead:

IC50 [1] [µM]	Structure (SMILES)	other results
25.8	CC(C)CCC[C@](C)(O)[C@H]1CC[C@]2(C)[C@@H]1[C@H](O)C[C@@H]1[C@@]3(C)CC[C@H](O)C(C)(C)[C@@H]3[C@@H](O)C[C@]12C	
2.9	COc1cccc2c1C(=O)c1c(O)c3c(c(O)c1C2=O)C[C@@](O)(C(=O)CO)C[C@@H]3O[C@H]1C[C@H](N)[C@H](O)[C@H](C)O1 [DOXORUBICIN]	
6.2	CC(=O)O[C@H]1C(=O)[C@@]2(C)[C@H]([C@H](OC(=O)c3ccccc3)[C@]3(O)C[C@H](OC(=O)[C@H](O)[C@@H](NC(=O)c4ccccc4)c4ccccc4)C(C)=C1C3(C)C)[C@]1(OC(C)=O)CO[C@@H]1C[C@@H]2O [PACLITAXEL]	
27	CC(C)CCC[C@](C)(O)[C@H]1CC[C@]2(C)[C@@H]1[C@H](O)C[C@@H]1[C@@]3(C)CC[C@H](O)C(C)(C)[C@@H]3CC[C@]12C	
